The results in this text go back to PubChem BioAssay (NCI).

Test systems include CCRF-CEM leukemia; HCC-2998 colon; PC-3 prostate; K-562 leukemia; SNB-19 CNS; U251 CNS; HL-60(TB) leukemia; CAKI-1 renal; MDA-N; SR leukemia; OVCAR-4 ovarian; SK-MEL-5 melanoma; TK-10 renal; IGROV1 ovarian; SW-620 colon; DU-145 prostate; NCI-H226 lung; HCT-15 colon; RXF 393 renal; HOP-92 NSCLC.
Common to all, as to assay: NCI tumour cell line growth inhibition, 48 h

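Tested at 5 concentrations; 48 h exposure; 96-well plates; endpoints linearly interpolated, else capped at highest concentration. At the TGI there is no net growth.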

In the case of `Oc1c(Cl)ccc2cccnc12`, the TGI was 2.4 µM in the experiment on CCRF-CEM leukemia; greater than 100 µM in the experiment with HCC-2998 colon; greater than 100 µM with PC-3 prostate; 7.56 µM with K-562 leukemia; greater than 100 µM in the experiment on SNB-19 CNS; greater than 100 µM in the experiment with U251 CNS. Moreover, the TGI was 0.728 µM in the experiment on HL-60(TB) leukemia; greater than 100 µM in the experiment on CAKI-1 renal; greater than 100 µM in the experiment with MDA-N; 13.5 µM in the experiment with SR leukemia; greater than 100 µM in the experiment with OVCAR-4 ovarian; greater than 100 µM in the experiment on SK-MEL-5 melanoma. Besides, the TGI is greater than 100 µM with TK-10 renal; 1.86 µM with IGROV1 ovarian; greater than 100 µM with SW-620 colon; greater than 100 µM in the experiment with DU-145 prostate; 71.2 µM in the experiment on NCI-H226 lung; greater than 100 µM in the experiment with HCT-15 colon. The same compound displayed a TGI in the experiment with RXF 393 renal of 26.2 µM.
Take `CCOC(=O)c1c(NS(=O)(=O)c2ccc(Br)cc2)sc2c1CCCC2`: the TGI in the experiment on CCRF-CEM leukemia is greater than 100 µM; in the experiment on HCC-2998 colon, 32.6 µM; with PC-3 prostate, 11.5 µM; in the experiment on K-562 leukemia it was greater than 100 µM; in the experiment on SNB-19 CNS, 20.6 µM; in the experiment on U251 CNS, 25.4 µM. Besides, the TGI is greater than 100 µM in the experiment on HL-60(TB) leukemia; 33.7 µM in the experiment with CAKI-1 renal; 52.9 µM with MDA-N; 74.7 µM in the experiment on SR leukemia; greater than 100 µM in the experiment on OVCAR-4 ovarian; 18.2 µM in the experiment on SK-MEL-5 melanoma. For the same compound, the TGI was 31.9 µM in the experiment on TK-10 renal; 8.79 µM in the experiment with IGROV1 ovarian; 30.6 µM in the experiment on SW-620 colon; greater than 58 µM in the experiment with DU-145 prostate; 9.91 µM in the experiment on NCI-H226 lung; 19 µM in the experiment with HCT-15 colon. For the same compound, in the experiment on RXF 393 renal, the TGI was 6.98 µM.
Consider `O=[N+]([O-])c1nccn1CCCN=c1c2ccccc2n(O)c2ccccc12`, for which the TGI in the experiment with CCRF-CEM leukemia, with PC-3 prostate, with K-562 leukemia, in the experiment on HOP-92 NSCLC, with U251 CNS and in the experiment on HL-60(TB) leukemia was greater than 100 µM in each case. The TGI in the experiment on CAKI-1 renal, with MDA-N, with SR leukemia, in the experiment on OVCAR-4 ovarian, in the experiment on SK-MEL-5 melanoma and with TK-10 renal was greater than 100 µM in each case. Besides, the TGI in the experiment on IGROV1 ovarian, in the experiment with SW-620 colon, with DU-145 prostate, in the experiment on NCI-H226 lung, with HCT-15 colon and in the experiment with RXF 393 renal was greater than 100 µM in each case.
In the case of `Cc1cc(C)nc(NC(=S)Nc2cccc(Cl)c2)c1`, the TGI in the experiment with CCRF-CEM leukemia, with HCC-2998 colon, in the experiment on PC-3 prostate, in the experiment on K-562 leukemia, with SNB-19 CNS and with U251 CNS was greater than 100 µM each time. Besides, the TGI in the experiment on HL-60(TB) leukemia was greater than 100 µM; in the experiment on CAKI-1 renal, greater than 86.5 µM; with MDA-N, greater than 100 µM; in the experiment with SR leukemia it was greater than 100 µM; in the experiment on OVCAR-4 ovarian it was greater than 100 µM; with TK-10 renal it was greater than 100 µM. Moreover, the TGI in the experiment on IGROV1 ovarian, with SW-620 colon, in the experiment with DU-145 prostate, in the experiment with NCI-H226 lung, in the experiment on HCT-15 colon and in the experiment with RXF 393 renal was greater than 100 µM each time.
As for `CSc1sc(C)cc1-c1nsc(=O)o1`, the TGI in the experiment on CCRF-CEM leukemia, in the experiment on HCC-2998 colon, in the experiment with PC-3 prostate, in the experiment with K-562 leukemia, in the experiment with SNB-19 CNS and in the experiment with HOP-92 NSCLC was greater than 100 µM throughout. Moreover, the TGI in the experiment on U251 CNS, with HL-60(TB) leukemia, in the experiment on CAKI-1 renal, in the experiment on MDA-N, in the experiment on SR leukemia and in the experiment on OVCAR-4 ovarian was greater than 100 µM each time. For the same compound, the TGI with SK-MEL-5 melanoma, in the experiment with IGROV1 ovarian, in the experiment on SW-620 colon, in the experiment with DU-145 prostate, in the experiment with HCT-15 colon and in the experiment with RXF 393 renal was greater than 100 µM throughout.
Regarding `Nc1ccc(S(=O)(=O)Nc2nc3ccccc3nc2Nc2ccc(S(N)(=O)=O)cc2)cc1`, the TGI in the experiment on CCRF-CEM leukemia, in the experiment with PC-3 prostate, in the experiment with K-562 leukemia, in the experiment on SNB-19 CNS, with HOP-92 NSCLC and with U251 CNS was greater than 100 µM throughout. Further, the TGI is 63.2 µM with HL-60(TB) leukemia; greater than 100 µM with CAKI-1 renal; greater than 100 µM in the experiment on MDA-N; greater than 100 µM in the experiment on SR leukemia; 49.7 µM in the experiment on OVCAR-4 ovarian; greater than 100 µM in the experiment with SK-MEL-5 melanoma. Besides, the TGI in the experiment with TK-10 renal, in the experiment on IGROV1 ovarian, with SW-620 colon, with DU-145 prostate, in the experiment with NCI-H226 lung and in the experiment on HCT-15 colon was greater than 100 µM each time. In the experiment on RXF 393 renal, the TGI was 62 µM.
Turning to `O=c1oc2ccccc2c(-c2ccc(O)cc2)c1Oc1ccc(Cl)cc1`, the TGI with CCRF-CEM leukemia is 52.9 µM; with HCC-2998 colon, 46.1 µM; with PC-3 prostate, 97.1 µM; with K-562 leukemia, 72.1 µM; with SNB-19 CNS, 67 µM; with HOP-92 NSCLC, 52.9 µM. Also, the TGI is 61.4 µM with U251 CNS; greater than 100 µM in the experiment with CAKI-1 renal; 67.6 µM in the experiment with MDA-N; 51.9 µM in the experiment with SR leukemia; greater than 100 µM in the experiment with OVCAR-4 ovarian; 45.3 µM in the experiment on SK-MEL-5 melanoma. In addition, the TGI is 62.1 µM in the experiment with TK-10 renal; 60.8 µM in the experiment on IGROV1 ovarian; greater than 100 µM with SW-620 colon; greater than 100 µM with DU-145 prostate; 86.3 µM in the experiment on NCI-H226 lung; greater than 100 µM in the experiment with HCT-15 colon. The compound also gave a TGI in the experiment on RXF 393 renal of 57.8 µM.
